According to patent US9388139B2, “Derivatives of celeboxib, use thereof and preparation thereof” (German University, priority 2011, dated 2016):

Columns and labels:
Experiment in all cases: Tumor cell growth inhibition panel
Type in all cases: cell-based
NCI-H322M = settings: Homo sapiens, Lung
Description: (§1) Thus, compound 12 is able to show broad spectrum tumor cell growth inhibitory activity independent of cyclooxygenase inhibition, whereas PDE5 may be the major contributor to such activity.
(§2) The human tumor cell lines were purchased from the American Type Culture Collection (Mansassas, Va.) and maintained in RPMI-1640+2.0 g/L glucose pH 7.4+5% FBS+4 mM glutamine (complete growth medium), incubated at 37° C. in 5% CO2, and passaged at subconfluent density. The human fetal colon FHC cells were cultured in DMEM:F12 medium supplemented with 10% FBS, cholera toxin (10 ng/mL), 5 μg/ml transferrin, 5 μg/ml insulin, and 100 ng/ml hydrocortisone. The passage number was routinely limited to approximately 20 and morphology monitored with each passage, but no additional authentication of the cell lines was performed.
(§3) Cells were plated in 96-well microtiter plates at a density of 5,000 cells per well and allowed to adhere overnight prior to treatment. Cells were treated with a 2-log concentration range of either SS or SBA and incubated for an additional 72 hours. For siRNA assays, cells were transfected in OptiMEM media with 0.5% SureFECT transfection reagent and 200 nmol/L of either negative control or PDE5 siRNA and incubated at 37° C. for 24 h prior to treatment. At the end of the incubation period, relative cell viability was compared to vehicle controls using the Cell Titer Glo Assay (Promega, Madison Wis.), which measures viable cells based on ATP content, according to the manufacturer's specifications.

HOP-92 = settings: Homo sapiens, Lung
Description: as §1, §2, §3

NCI-H226 = settings: Homo sapiens, Lung
Description: as §1, §2, §3

U251 = settings: Homo sapiens, U-251, CNS
Description: as §1, §2, §3

SF-295 = settings: Homo sapiens, CNS
Description: as §1, §2, §3

UACC-257 = settings: Homo sapiens, Melanoma
Description: as §1, §2, §3

A498 = settings: Homo sapiens, Renal
Description: as §1, §2, §3

UACC-62 = settings: Homo sapiens, Melanoma
Description: as §1, §2, §3

Hs578T = settings: Homo sapiens, Hs-578T, Breast
Description: as §1, §2, §3

OVCAR-8 = settings: Homo sapiens, Ovarian
Description: as §1, §2, §3

HOP-62 = settings: Homo sapiens, Lung
Description: as §1, §2, §3

HCC-2998 = settings: Homo sapiens, Colon
Description: as §1, §2, §3

SW-620 = settings: Homo sapiens, Colon
Description: as §1, §2, §3

786-0 = settings: Homo sapiens, Renal
Description: as §1, §2, §3

HL-60 (TB) = settings: Homo sapiens, Hematopoietic
Description: as §1, §2, §3

SF-268 = settings: Homo sapiens, CNS
Description: as §1, §2, §3

TK-10 = settings: Homo sapiens, Renal
Description: as §1, §2, §3

K562 = settings: Homo sapiens, Hematopoietic
Description: as §1, §2, §3

NCI-H522 = settings: Homo sapiens, Lung
Description: as §1, §2, §3

MDA-MB-468 = settings: Homo sapiens, Breast
Description: as §1, §2, §3

A549 = settings: Homo sapiens, Lung
Description: as §1, §2, §3

MDA-MB-435 = settings: Homo sapiens, Melanoma
Description: as §1, §2, §3

HCT-15 = settings: Homo sapiens, Colon
Description: as §1, §2, §3

HCT-116 = settings: Homo sapiens, Colon
Description: as §1, §2, §3

M14 = settings: Homo sapiens, Melanoma
Description: as §1, §2, §3

BT-549 = settings: Homo sapiens, Breast
Description: as §1, §2, §3

HT29 = settings: Homo sapiens, HT-29, Colon
Description: as §1, §2, §3

NCI-ADR/RES = settings: Homo sapiens; Other, NCI-ADR/RES (adriamycin resistant)
Description: as §1, §2, §3

COL0205 = settings: Homo sapiens, Colon
Description: as §1, §2, §3

KM12 = settings: Homo sapiens, Colon
Description: as §1, §2, §3

OVCAR-3 = settings: Homo sapiens, Ovarian
Description: as §1, §2, §3

MCF-7 = settings: Homo sapiens, MCF7, Breast
Description: as §1, §2, §3

CCFR-CEM = settings: Homo sapiens, Hematopoietic
Description: as §1, §2, §3

PC-3 = settings: Homo sapiens, Prostate
Description: as §1, §2, §3

OVCAR-4 = settings: Homo sapiens, Ovarian
Description: as §1, §2, §3

SNB-19 = settings: Homo sapiens, CNS
Description: as §1, §2, §3

CAKI-1 = settings: Homo sapiens, Renal
Description: as §1, §2, §3

SK-MEL-28 = settings: Homo sapiens, Melanoma
Description: as §1, §2, §3

T-47D = settings: Homo sapiens, T47D, Breast
Description: as §1, §2, §3

SN12C = settings: Homo sapiens, Renal
Description: as §1, §2, §3

ACHN = settings: Homo sapiens, Renal
Description: as §1, §2, §3

UO-31 = settings: Homo sapiens, Renal
Description: as §1, §2, §3

DU-145 = settings: Homo sapiens, Prostate
Description: as §1, §2, §3

MOLT-4 = settings: Homo sapiens, Hematopoietic
Description: as §1, §2, §3

CC(C)(C)C1=NN(c2ccc(C(=O)O)cc2)C(c2ccc(Cl)cc2Cl)C1 (centres unmarked) [Compound 12, 4-(3-(tert-Butyl)-5-(2,4-dichlorophenyl)-4,5-dihydro-1H-pyrazol-1-yl)benzoic acid]
IC50 (NCI-H322M): 49.8 µM
IC50 (HOP-92): 52.8 µM
IC50 (NCI-H226): 56.4 µM
IC50 (U251): 33.3 µM
IC50 (SF-295): 45.8 µM
IC50 (UACC-257): 70 µM
IC50 (A498): 33 µM
IC50 (UACC-62): 42.3 µM
IC50 (Hs578T): 48.9 µM
IC50 (OVCAR-8): 45.8 µM
IC50 (HOP-62): 37.4 µM
IC50 (HCC-2998): 41.9 µM
IC50 (SW-620): 51.8 µM
IC50 (786-0): 46.4 µM
IC50 (HL-60 (TB)): 34.5 µM
IC50 (SF-268): 41.1 µM
IC50 (TK-10): 74 µM
IC50 (K562): 33.2 µM
IC50 (NCI-H522): 50.4 µM
IC50 (MDA-MB-468): 58.5 µM
IC50 (A549): 58 µM
IC50 (MDA-MB-435): 50.8 µM
IC50 (HCT-15): 40.3 µM
IC50 (HCT-116): 39 µM
IC50 (M14): 62.9 µM
IC50 (BT-549): 54.7 µM
IC50 (HT29): 29.8 µM
IC50 (NCI-ADR/RES): 57.2 µM
IC50 (COL0205): 31.3 µM
IC50 (KM12): 34.7 µM
IC50 (OVCAR-3): 37.8 µM
IC50 (MCF-7): 52.4 µM
IC50 (CCFR-CEM): 33.1 µM
IC50 (PC-3): 55.1 µM
IC50 (OVCAR-4): 54.9 µM
IC50 (SNB-19): 52.8 µM
IC50 (CAKI-1): 87 µM
IC50 (SK-MEL-28): 72.4 µM
IC50 (T-47D): 63 µM
IC50 (SN12C): 50 µM
IC50 (ACHN): 55.3 µM
IC50 (UO-31): 55.7 µM
IC50 (DU-145): 59.6 µM
IC50 (MOLT-4): 20.7 µM
